The subject of one assay is Male C57BL/6 mice. In words: Oral glucose tolerance test in C57BL/6 mice. In kind it is in vivo. As to conditions: 3 mpk and 10 mpk, glucose 2 g/kg. The procedure: (§1) Male C57BL/6 mice (8-10 weeks) were grouped based on basal glucose levels and animals were fasted for 16 hours. Glucose level of each animal was estimated in blood collected from tail vein before animals were dosed orally with 0.5% Tween 80 and 0.5% NaCMC (vehicle control) and compounds at 3 and 10 mpk (n=5). After 30 minutes of compound dosing, blood glucose was again estimated and 2 g/kg/10 ml (20%) of Glucose solution was administered orally to all the animals. Blood glucose was estimated at 15, 30, 60, 90 and 120 minutes time points after glucose administration. Accu-Check active blood glucose meter was utilised for estimation of blood from tail vein.
Glucose reduction observed in animals treated with compounds of present invention is represented in terms of % AUC reduction. A greater glucose reduction in oral glucose tolerance test indicates the compound's efficacy in this rodent species.

Another assay addresses T1, hGPR119 (Homo sapiens, UniProt Q8TDV5).
T1 construct: expressed in transfected cells; host or cells: CHO
T1 sequence (Q8TDV5 1-335): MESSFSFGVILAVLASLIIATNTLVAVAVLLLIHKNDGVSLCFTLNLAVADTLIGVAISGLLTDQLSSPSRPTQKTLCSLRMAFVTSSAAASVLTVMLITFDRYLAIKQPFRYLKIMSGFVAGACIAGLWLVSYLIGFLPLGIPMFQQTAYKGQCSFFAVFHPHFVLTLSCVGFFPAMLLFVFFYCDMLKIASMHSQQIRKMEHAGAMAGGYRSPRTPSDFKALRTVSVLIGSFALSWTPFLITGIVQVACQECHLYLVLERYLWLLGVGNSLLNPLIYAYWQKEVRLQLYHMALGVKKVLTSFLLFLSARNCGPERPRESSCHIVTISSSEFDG
Briefly: In vitro cyclic AMP assay (Cisbio dynamic 2 HTRF kit) in CHO-hGPR119 cells. In kind it is cell-based. The settings on record: cAMP; for activation at 1 µM: 1 h, read-out: Induction (% induction at 1 μM).

The test system of another assay is Male SD rats. Briefly: Oral glucose tolerance test in Sprague-Dawley rats. In kind it is in vivo. The settings on record: 3 mpk and 10 mpk, glucose 2 g/kg. Here is the method: as §1, with “SD rats” for “C57BL/6 mice”
Glucose reduction observed in animals treated with GPR119 agonists is represented in terms of % AUC reduction. A greater glucose reduction in oral glucose tolerance test indicates the compound's efficacy in this rodent species.

This note sets out measurements from patent US10526345B2, “Compounds as GPR119 agonists” (Mankind Pharma Ltd., priority 2016, dated 2020).

SMILES strings stand for the structures.

Consider `CC(Oc1nc2ccc(-c3ccc(S(C)(=O)=O)cc3)nc2s1)C1CCN(c2ncc(Cl)cn2)CC1` (stereo not shown) [Compound 1120, 2-(1-(1-(5-chloropyrimidin-2-yl)piperidin-4-yl)ethoxy)-5-(4-(methylsulfonyl)phenyl)thiazolo[5,4-b]pyridine], for which, in the assay with Male C57BL/6 mice, the “glucose reduction (% AUC reduction) in oral glucose tolerance test” value (from here on “glucose reduction (% AUC reduction)”) is reported as “significant dose dependent glucose reduction”. In addition, at hGPR119 (compound at 1 μM, 60 min), the activation at 1 µM stood at 40%.
Take `CCc1cnc(N2CCC([C@H](C)Oc3nc4ccc(-c5cnc(Cl)nc5)nc4s3)CC2)nc1` [Compound 1135, 2-((S)-1-(1-(5-ethylpyrimidin-2-yl)piperidin-4-yl)ethoxy)-5-(2-chloropyrimidin-5-yl)thiazolo[5,4-b]pyridine]: the “glucose reduction (% AUC reduction)” value in the assay on Male C57BL/6 mice and in the assay on Male SD rats was “significant dose dependent glucose reduction” in each case. The activation at 1 µM at hGPR119 (compound at 1 μM, 60 min) came to 86%. The molecule further showed an EC50 on hGPR119 of less than 25 nM.
With `CCc1cnc(N2CCC([C@H](C)Oc3nc4ccc(-c5ccnc(F)c5)nc4s3)CC2)nc1` [Compound 1104, (S)-2-(1-(1-(5-ethylpyrimidin-2-yl)piperidin-4-yl)ethoxy)-5-(2-fluoropyridin-4-yl)thiazolo[5,4-b]pyridine], the “glucose reduction (% AUC reduction)” value with Male C57BL/6 mice is reported as “significant dose dependent glucose reduction”. Also, at hGPR119 (compound at 1 μM, 60 min), the activation at 1 µM is 84%. Moreover, on hGPR119, the concentration for a half-maximal effect (EC50) is 25 to 50 nM.
As for `CCc1cnc(N2CCC([C@H](C)Oc3nc4ccc(-c5ccc(S(C)(=O)=O)nc5)nc4s3)CC2)nc1` [Compound 1106, (S)-2-(1-(1-(5-ethylpyrimidin-2-yl)piperidin-4-yl)ethoxy)-5-(6-(methylsulfonyl)pyridin-3-yl)thiazolo[5,4-b]pyridine], the “glucose reduction (% AUC reduction)” value in the assay with Male C57BL/6 mice and with Male SD rats was “significant dose dependent glucose reduction” throughout. For the same molecule, on hGPR119 (compound at 1 μM, 60 min), the activation at 1 µM amounted to 75%. The molecule further displayed an EC50 on hGPR119 of less than 25 nM.
`CC(C)c1noc(C2CCN(c3nc4ccc(-c5ccc(S(C)(=O)=O)cc5)nc4s3)CC2)n1` [Compound 1004, 3-isopropyl-5-(1-(5-(4-(methylsulfonyl)phenyl)thiazolo[5,4-b]pyridin-2-yl)piperidin-4-yl)-1,2,4-oxadiazole]: the activation at 1 µM at hGPR119 (compound at 1 μM, 60 min) worked out at 45%.
`CC(C)c1noc(N2CCC(C(Oc3nc4ccc(-c5ccnc(F)c5)nc4s3)C(F)(F)F)CC2)n1` (stereo not shown) [Compound 1103, 3-isopropyl-5-(4-(2,2,2-trifluoro-1-((5-(2-fluoropyridin-4-yl)thiazolo[5,4-b]pyridin-2-yl)oxy)ethyl)piperidin-1-yl)-1,2,4-oxadiazole]: the activation at 1 µM on hGPR119 (compound at 1 μM, 60 min) was 63%.
Turning to `CC(C)c1noc(N2CCC(C(C)Oc3nc4ccc(-c5cnoc5)nc4s3)CC2)n1` (stereo not shown) [Compound 1122, 3-isopropyl-5-(4-(1-((5-(isoxazol-4-yl)thiazolo[5,4-b]pyridin-2-yl)oxy)ethyl)piperidin-1-yl)-1,2,4-oxadiazole], the activation at 1 µM at hGPR119 (compound at 1 μM, 60 min) was 30%.
On to `Cc1cnc(N2CCC(C(C)Oc3nc4ccc(-c5ccc(S(C)(=O)=O)nc5)nc4s3)CC2)nc1` (stereo not shown) [Compound 1157, 2-(1-(1-(5-methylpyrimidin-2-yl)piperidin-4-yl)ethoxy)-5-(6-(methylsulfonyl)pyridin-3-yl)thiazolo[5,4-b]pyridine], for which the activation at 1 µM at hGPR119 (compound at 1 μM, 60 min) was found to be 81%.
As to `CC(C)c1noc(N2CCC(C(C)Oc3nc4ccc(-c5ccc(S(C)(=O)=O)c(F)c5)nc4s3)CC2)n1` (stereo not shown) [Compound 1100, 5-(4-(1-((5-(3-fluoro-4-(methylsulfonyl)phenyl)thiazolo[5,4-b]pyridin-2-yl)oxy)ethyl)piperidin-1-yl)-3-isopropyl-1,2,4-oxadiazole], the activation at 1 µM at hGPR119 (compound at 1 μM, 60 min) amounted to 65%.
`CC(C)c1noc(N2CCC(C(C)Oc3nc4ccc(-c5ccnc(Cl)c5)nc4s3)CC2)n1` (stereo not shown) [Compound 1132, 2-(1-(1-(3-isopropyl-1,2,4-oxadiazol-5-yl)piperidin-4-yl)ethoxy)-5-(2-chloropyridin-4-yl)thiazolo[5,4-b]pyridine]: the activation at 1 µM on hGPR119 (compound at 1 μM, 60 min) turned out to be 38%.
Turning to `CC(C)c1noc(N2CCC([C@@H](C)Oc3nc4ccc(-c5ccc(S(C)(=O)=O)cc5)nc4s3)CC2)n1` [Compound 1032, (R)-3-isopropyl-5-(4-(1-((5-(4-(methylsulfonyl)phenyl)thiazolo[5,4-b]pyridin-2-yl)oxy)ethyl)piperidin-1-yl)-1,2,4-oxadiazole], the activation at 1 µM on hGPR119 (compound at 1 μM, 60 min) amounted to 13%.
For the molecule `Cc1cc(-c2ccc3nc(OC(C)C4CCN(c5nc(C(C)C)no5)CC4)sc3n2)ccn1` (stereo not shown) [Compound 1123, 3-isopropyl-5-(4-(1-((5-(2-methylpyridin-4-yl)thiazolo[5,4-b]pyridin-2-yl)oxy)ethyl)piperidin-1-yl)-1,2,4-oxadiazole], the activation at 1 µM at hGPR119 (compound at 1 μM, 60 min) worked out at 50%.
Regarding `CC(C)c1noc(N2CCC(COc3nc4ccc(-c5ccncc5)nc4s3)CC2)n1` [Compound 1083, 3-isopropyl-5-(4-(((5-(pyridin-4-yl)thiazolo[5,4-b]pyridin-2-yl)oxy)methyl)piperidin-1-yl)-1,2,4-oxadiazole], the activation at 1 µM on hGPR119 (compound at 1 μM, 60 min) stood at 14%.
As to `CC(C)c1noc(N2CCC([C@H](C)Oc3nc4ccc(-c5ccncc5)nc4s3)CC2)n1` [Compound 1092, (S)-3-isopropyl-5-(4-(1-((5-(pyridin-4-yl)thiazolo[5,4-b]pyridin-2-yl)oxy)ethyl)piperidin-1-yl)-1,2,4-oxadiazole], on hGPR119 (compound at 1 μM, 60 min), the activation at 1 µM was 9%.
Consider `CC(C)c1noc(N2CCC([C@@H](C)Oc3nc4ccc(-c5ccncc5)nc4s3)CC2)n1` [Compound 1070, (R)-3-isopropyl-5-(4-(1-((5-(pyridin-4-yl)thiazolo[5,4-b]pyridin-2-yl)oxy)ethyl)piperidin-1-yl)-1,2,4-oxadiazole], for which the activation at 1 µM at hGPR119 (compound at 1 μM, 60 min) was determined as 83%. The molecule also displayed an EC50 at hGPR119 of 50 to 100 nM.
For `CC(C)OC(=O)N1CCC(C(C)Oc2nc3ccc(-c4ccc(S(C)(=O)=O)cc4)nc3s2)CC1` (stereo not shown) [Compound 1056, isopropyl 4-(1-((5-(4-(methylsulfonyl)phenyl)thiazolo[5,4-b]pyridin-2-yl)oxy)ethyl)piperidine-1-carboxylate], the activation at 1 µM on hGPR119 (compound at 1 μM, 60 min) was 51%.
In the case of `CC(C)c1noc(N2CCC(OC(C)c3nc4ccc(-c5ccc(S(C)(=O)=O)cc5)nc4s3)CC2)n1` (stereo not shown) [Compound 1130, 3-isopropyl-5-(4-(1-(5-(4-(methylsulfonyl)phenyl)thiazolo[5,4-b]pyridin-2-yl)ethoxy)piperidin-1-yl)-1,2,4-oxadiazole], the activation at 1 µM at hGPR119 (compound at 1 μM, 60 min) stood at 5%.
Consider `COCCS(=O)(=O)c1ccc(-c2ccc3nc(OC(C)C4CCN(c5nc(C(C)C)no5)CC4)sc3n2)cc1` (stereo not shown) [Compound 1067, 3-isopropyl-5-(4-(1-((5-(4-((2-methoxyethyl)sulfonyl)phenyl)thiazolo[5,4-b]pyridin-2-yl)oxy)ethyl)piperidin-1-yl)-1,2,4-oxadiazole], for which the activation at 1 µM at hGPR119 (compound at 1 μM, 60 min) worked out at 36%.
Consider `CC(C)c1noc(N2CCC([C@H](C)Oc3nc4ccc(-c5ccncc5F)nc4s3)CC2)n1` [Compound 1096, (S)-5-(4-(1-((5-(3-fluoropyridin-4-yl)thiazolo[5,4-b]pyridin-2-yl)oxy)ethyl)piperidin-1-yl)-3-isopropyl-1,2,4-oxadiazole], for which the EC50 at hGPR119 lay in the range of 50 to 100 nM. Further, the “Induction (% induction at 1 μM)” value at hGPR119 (compound at 1 μM, 60 min) was 66%.
Take `CCCc1cnc(N2CCC([C@H](C)Oc3nc4ccc(-c5ccncc5)nc4s3)CC2)nc1` [Compound 1153, 2-((S)-1-(1-(5-propylpyrimidin-2-yl)piperidin-4-yl)ethoxy)-5-(pyridin-4-yl)thiazolo[5,4-b]pyridine]: the activation at 1 µM at hGPR119 (compound at 1 μM, 60 min) amounted to 85%. Besides, at hGPR119, the EC50 lay in the range of 100 to 500 nM.
In the case of `CC(Oc1nc2ccc(-c3ccc(S(C)(=O)=O)nc3)nc2s1)C1CCN(c2ncc(C(F)(F)F)cn2)CC1` (stereo not shown) [Compound 1159, 2-(1-(1-(5-(trifluoromethyl)pyrimidin-2-yl)piperidin-4-yl)ethoxy)-5-(6-(methylsulfonyl)pyridin-3-yl)thiazolo[5,4-b]pyridine], the activation at 1 µM on hGPR119 (compound at 1 μM, 60 min) amounted to 70%.
`CC(C)c1noc(N2CCC(COc3nc4ccc(-c5ccc(S(C)(=O)=O)cc5)nc4s3)CC2)n1` [Compound 1006, 3-isopropyl-5-(4-(((5-(4-(methylsulfonyl)phenyl)thiazolo[5,4-b]pyridin-2-yl)oxy)methyl)piperidin-1-yl)-1,2,4-oxadiazole]: the activation at 1 µM on hGPR119 (compound at 1 μM, 60 min) amounted to 31%.
